Experimental data: PMC5531531, “A synthetic cationic antimicrobial peptide inhibits inflammatory response and the NLRP3 inflammasome by neutralizing LPS and ATP” (PLoS ONE, 2017)
No end group written: not given here.

Tests used:
[1] = test system: NLRP3 inflammasome in J774A.1 macrophages; assay: NLRP3 inflammasome activation (IL-1β ELISA, caspase-1 Western blot); format: cell-based
Procedure: The expression levels of IL-1β, IL-6 and TNF-α in the conditional medium, sera and lavage fluids were measured by ELISA as described in detail previously.
(§1) The protein expression levels of iNOS, COX-2, ERK1/2, JNK1/2, p38, IκB-α, PKC, caspase-1 and the phosphorylation levels of ERK1/2, JNK1/2, p38, PKC-α, PKC-δ, IκB-α were determined by Western blotting as described in detail previously.
Fig 4 Effects of GW-A2 on NLRP3 inflammasome activation. (A and B) J774A.1 macrophages were incubated for 30 min with or without 2 μM of GW-A2, for 5.5 h with or without 0.1 μg/ml of E. coli LPS, and then for 30 min with or without 5 mM of ATP (A) or 10 μM of nigericin (B). The levels of IL-1β in the culture medium and activated caspase-1 (p10) in the cells were measured by ELISA and Western blotting, respectively. (C—F) J774A.1 macrophages were incubated for 5.5 h with 0.1 μg/ml of E. coli LPS, for 30 min with or without 2 μM of GW-A2, and then for 30 min with or without 5 mM of ATP (C and E), 10 μM of nigericin (D) or 100 μg/ml of MSU (F). The levels of IL-1β and TNF-α in the culture medium and activated caspase-1 (p10) in the cells were measured by ELISA and Western blotting, respectively. The data are expressed as the mean ± SD of three independent experiments. The Western blotting results shown are a representative experiment of three independent experiments. *, ** and *** indicate significant differences, representing p < 0.05, p < 0.01 and p < 0.001, respectively compared to stimulation alone.

[2] = test system: LPS-induced NO generation in RAW264.7 cells; assay: NO inhibitory assay (Griess reaction), LPS-activated RAW 264.7; format: cell-based, mouse
Procedure: (§2) RAW 264.7 cells (2 × 10^5 in 0.5 ml of medium) were seeded in 24-well plates and then incubated with or without LPS (0.1 μg/ml) in the absence or presence of AMP for 24 h. The effects of AMP on NO production were measured indirectly by analyzing nitrite levels using the Griess reaction as described in detail previously.

[3] = test system: NF-κB activity in RAW-Blue cells; assay: NF-κB reporter assay; format: cell-based; conditions: E. coli LPS 0.1 μg/ml 24 h, QUANTI-Blue, Fig 2D
Procedure: RAW-Blue™ cells (2 × 10^5 in 0.5 ml of medium) were seeded in 24-well plates and then incubated with LPS (0.1 μg/ml) in the presence or absence of AMPs for 24 h. The NF-κB activity was assayed by QUANTI-Blue™ (rep-qb1, InvivoGen) as described in detail previously.

[4] = test system: E. coli-LPS-activated RAW 264.7 macrophages; assay: MAPK, PKC-α/δ and IκB-α phosphorylation (Western blot); format: cell-based, mouse; conditions: 2 μM GW-A2 30 min, then E. coli LPS 0.1 μg/ml 0–60 min
Procedure: as §1
Fig 2 Effects of GW-A2 on LPS-mediated signaling pathways. (A-C) RAW 264.7 macrophages were incubated for 30 min with or without 2 μM of GW-A2, followed by 0–60 min with or without 0.1 μg/ml of E. coli LPS. The phosphorylation levels of (A) ERK1/2, JNK1/2 and p38, (B) PKC-α and PKC-δ, and (C) I-κB-α were assayed by western blotting. (D) RAW-Blue^TM cells were incubated for 30 min with or without GW-A2, followed by 24 h with or without 0.1 μg/ml of E. coli LPS. The activation levels of NF-κB were measured by an NF-κB reporter assay. The data are expressed as the mean ± SD of three independent experiments. The western blotting results shown are a representative experiment of three independent experiments. * and ** indicate significant differences, representing p < 0.05 and p < 0.01, respectively compared to LPS alone.

[5] = test system: PGN-, Pam3CSK4- and CPS-activated RAW 264.7 macrophages; assay: NO generation induced by other bacterial components in RAW 264.7 (Griess reaction); format: cell-based, mouse; conditions: 24 h, Fig 1B
Procedure: as §2
Fig 1 Effects of GW-A2 on the expression levels of inflammatory mediators. (A) RAW 264.7 macrophages were incubated for 30 min with or without GW-A2 or scrambled GW-A2, followed by incubation with or without 0.1 μg/ml of E. coli LPS or Salmonella LPS for 24 h. The levels of NO in the culture medium were measured by the Griess reaction. (B) RAW 264.7 macrophages were incubated for 30 min with or without GW-A2, followed by incubation with or without peptidoglycan (20 μg/ml), Pam3CSK4 (0.2 μg/ml) or capsular polysaccharide (3 μg/ml) for 24 h. The levels of NO in the culture medium were measured by the Griess reaction. (C) RAW 264.7 macrophages were incubated for 30 min with or without GW-A2, followed by incubation with or without 0.1 μg/ml of E. coli LPS for 24 h. The levels of iNOS and COX-2 were assessed by Western blotting and the histograms represent the expression levels compared to the LPS alone group obtained in three different experiments. (D) RAW 264.7 macrophages were incubated for 30 min with or without GW-A2, followed by incubation with or without 0.1 μg/ml of E. coli LPS for 6 h. The mRNA levels of iNOS and COX-2 were assessed by quantitative real-time PCR. (E and F) RAW 264.7 macrophages (E) and human THP-1 macrophages (F) were incubated for 30 min with or without GW-A2, followed by incubation with or without 0.1 μg/ml of E. coli LPS for 24 h. The levels of TNF-α and IL-6 were assayed by ELISA. […] The cell proliferation was measured by AlamarBlue® assay. The data are expressed as the mean ± SD of three independent experiments. *, ** and *** indicate significant differences, representing p < 0.05, p < 0.01 and p < 0.001, respectively compared to stimulation alone. # indicates significant differences, representing p < 0.05 compared to 2 μM of GW-A2 group.

Sequence: GAKYAKIIYNYLKKIANALW [GW-A2]
- IL-1β secretion and caspase-1 activation induced by LPS+nigericin ([1]; 2 μM GW-A2 30 min before LPS 5.5 h, then 10 μM nigericin 30 min, Fig 4B): significantly inhibited
- IL-1β secretion and caspase-1 activation induced by LPS+ATP ([1]; 2 μM GW-A2 30 min before LPS 5.5 h, then 5 mM ATP 30 min, Fig 4A): significantly inhibited
- Nigericin-induced IL-1β secretion and caspase-1 activation in LPS-primed macrophages ([1]; LPS 5.5 h, then 2 μM GW-A2 30 min, then 10 μM nigericin, Fig 4D): no significant effect
- MSU-induced IL-1β secretion in LPS-primed macrophages ([1]; LPS 5.5 h, then 2 μM GW-A2 30 min, then 100 μg/ml MSU, Fig 4F): not able to inhibit
- ATP-induced IL-1β secretion and caspase-1 activation in LPS-primed macrophages ([1]; LPS 5.5 h, then 2 μM GW-A2 30 min, then 5 mM ATP, Fig 4C): inhibited
- TNF-α secretion in LPS-primed macrophages ([1]; LPS 5.5 h, then 2 μM GW-A2 30 min, then 5 mM ATP, Fig 4E): did not decrease
- NO generation, GW-A2 added 0–8 h post LPS stimulation (therapeutic) ([2]; 2 μM GW-A2, Fig 3B): significantly inhibited
- NO generation, GW-A2 added 16 h after LPS stimulation ([2]; 2 μM GW-A2, Fig 3B): no effect
- NO generation induced by E. coli-LPS ([2]; RAW 264.7, 30 min peptide then 0.1 μg/ml E. coli LPS 24 h, Griess, Fig 1A): inhibited by GW-A2 in a dose-dependent manner
- NO generation induced by Salmonella-LPS ([2]; RAW 264.7, 30 min peptide then 0.1 μg/ml Salmonella LPS 24 h, Griess, Fig 1A): inhibited by GW-A2 in a dose-dependent manner
- LPS-induced NO generation, GW-A2 added with LPS or 24 h before LPS (prophylactic) ([2]; pre-incubation 0–24 h, then LPS 24 h, Fig 3A): significantly reduce
- LPS-induced NO generation, GW-A2 washed off before LPS stimulation ([2]; pre-incubation 1, 3, 6, 12 or 24 h, supernatant replaced, LPS 24 h, Fig 3C): not able to inhibit
- NF-κB transcriptional activity [3]: reduced by GW-A2 in a dose-dependent manner
- Phosphorylation levels of ERK1/2, JNK1/2 and p38 ([4]; Fig 2A): reduced
- Phosphorylation levels of PKC-α and PKC-δ ([4]; Fig 2B): reduced
- Phosphorylation levels of IκB-α ([4]; Fig 2C): inhibited
- NO inhibitory activity in Pam3CSK4-activated macrophages ([5]; Pam3CSK4 0.2 μg/ml): much lower than that in LPS-activated macrophages
- NO inhibitory activity in CPS-activated macrophages ([5]; capsular polysaccharide 3 μg/ml): much lower than that in LPS-activated macrophages
- NO inhibitory activity in PGN-activated macrophages ([5]; peptidoglycan 20 μg/ml): much lower than that in LPS-activated macrophages
